Assay results as given in US4785005A, “6-(6-alkylpyridone)-carbostyril compounds and their cardiotonic uses” (Rorer Pharmaceutical Corporation, priority 1986, dated 1988).

Key:
[1] = system: anesthetized dog (myocardial contractile force, heart rate, arterial pressure, aortic flow); assay: Ganglionic-beta blocked anesthetized dog procedure; assay type: in vivo; conditions: for ED50: Canis lupus familiaris, iv, read-out: inotropic ED50
Procedure: Adult mongrel dogs of either sex weighing 10 to 16 kg are fasted overnight, anesthetized with pentobarbital sodium 35 mg/kg, i.v. intubated, respired with room air using a Harvard respirator, and instrumented surgically to monitor myocardial contractile force, heart rate, arterial pressure, aortic flow and EKG limb lead II. The aforesaid measurements are recorded continously on a strip chart recorder.
Myocardial contractile force is monitored by a a Walton-Brodie strain gauge sutured to the left ventricular myocardium parallel to the left anterior descending coronary artery. Arterial pressure is measured using a fluid-filled catheter attached to a pressure transducer introduced via the right femoral artery and positioned in the thoracic aorta. Mean arterial pressure is determined by electronically clamping the pulsatile pressure signal. Aortic flow is monitored using a precalibrated, noncannulating electromagnetic flow probe positioned around the thoracic aorta. Heart rate is monitored using a cardiotachometer triggered by the QRS complex of the limb lead II EKG. The right femoral vein is cannulated for intravenous infusion of drugs. Body temperature is maintained at 37±1° C.
Following a 30 min postsurgical stabilization period, control values are recorded. Myocardial depression is induced by ganglionic and beta receptor blockade. Initially, the responsiveness of the autonomic nervous system is assessed by performing a 30 sec bilateral carotid occlusion (BCO). Ten minutes later, a saline solution of isoproterenol 0.3 mcg/kg i.v. is administered to assess beta receptor integrity. Ten minutes after that, a saline solution of mecamylamine 2 mg/kg i.v. is infused, followed by a saline solution of propranolol 1 mg/kg i.v. plus 0.3 mg/kg/hr. […] Ten minutes later, the test compound or vehicle is administered intravenously in ascending doses at 30 min intervals at […] in a total volume of 3.5 ml. On completion of the experiment, both BCO and isoproterenol challenges are repeated to verify ganglionic and beta blockade.
Solutions of the most preferred compound of the present invention, 6-[3'-cyano-6'-methyl-2'-oxo(1H)pyridin-5'-yl]-3,4-dihydrocarbostyril, and milrinone, 3-cyano-6-methyl-5-(4-pyridyl)-pyridin-2-one, were administered intravenously in accordance with the procedure described above. The solutions were prepared by dissolution in PEG 200 followed by serial saline dilution to yield test doses. Test solutions of 6-[3'-cyano-6'-methyl-2'-oxo(1H)pyridin-5'-yl]-3,4-dihydrocarbostyril were prepared at doses of 3, 10 and 30 mcg (expressed as base) per kg, and solutions of milrinone were prepared at test doses of 30, 100 and 300 mcg/kg.

[2] = system: Peak III cAMP phosphodiesterase; assay: Inhibition of Peak III cAMP phosphodiesterase activity; assay type: biochemical, dog; conditions: fold more potent than milrinone
Text: The following in vitro method is another means for measuring the inotropic potency of the present compounds. This method is a modification of the enzyme inhibition method reported by Thompson, W. J. and Appleman, M. M., "Characterization of Cyclic Nucleotide Phosphodiesterase of Rat Tissue," J. Biological Chemistry, Vol. 246, pp. 3145-3150 (1971); and Thompson, W. J., Brooker, G. and Appleman, M. M., "Assay of Cyclic Nucleotide Phosphodiesterase with Radioactive Substrates," Methods in Enzymology, Vol. 38, pp. 205-212 (1974); and is believed to correlate to in vivo intropic activity in humans.
The test compounds are included in media comprising a radioactively labeled substrate (^3 H-cyclic nucleotide) such as adenosine 3':5'-monophosphate (cyclic AMP) and guanosine-3':5'-monophosphate(cyclic GMP), and a non-rate-limiting amount of 5'-nucleotidease isolated from a dog heart. The inhibition of the enzyme hydrolysis of the 5'-nucleotide product of the cNUC-PDEase to the corresponding nucleoside is measured by separating the charged, unhydrolyzed substrate from the uncharged hydrolysis product. Separation may be acheived either chromatographically from the uncharged nucleoside product of the assay with ion-exchange resin or preferentially quenched with the ion-exchange resin so that it is not quantitated with the liquid scintillation counter.

[3] = 30 mcg/kg i.v., ganglionic-beta blocked anesthetized dog
[4] = ganglionic-beta blocked anesthetized dog
[5] = 100 mcg/kg i.v., ganglionic-beta blocked anesthetized dog

Row | potency in Peak III phosphodiesterase inhibition relative to milrinone [2] | Structure (SMILES) | increase in contractile force (maximum) [1, 3] [%] | increase in heart rate [1, 3] [%] | ED50 [1, 4] [mg/kg] | arterial blood pressure ([1]; i.v., at the doses tested (3, 10 and 30 mcg/kg)) | increase in aortic blood flow (maximum) ([1]; i.v., doses of 3, 10 and 30 mcg/kg tested) [%] | increase in contractile force [1, 5] [%] | increase in heart rate [1, 5] [%] | maximum decrease of mean arterial pressure ([1]; i.v., dose-related, sustained, doses of 30, 100 and 300 mcg/kg tested) [%] | increase in aortic blood flow (in words) ([1]; i.v., doses of 30, 100 and 300 mcg/kg tested)
1 | about twelve | Cc1[nH]c(=O)c(C#N)cc1-c1ccc2c(c1)CCC(=O)N2 [6-[3'-Cyano-6'-methyl-2'-oxo(1H)pyridin-5'-yl]-3,4-dihydrocarbostyril] | 97 | 17 | 0.016 | not altered | 51 |  |  |  | 
2 |  | Cc1[nH]c(=O)c(C#N)cc1-c1ccncc1 [milrinone, 3-cyano-6-methyl-5-(4-pyridyl)-pyridin-2-one, reference compound] |  |  | 0.05 |  |  | 111 | 19 | 32 | only transiently at low dose
